According to US4332800A, “Cephem compounds” (Fujisawa Pharmaceutical Co., Ltd., priority 1979, dated 1982):
Values after ≈ are worked out from the molar mass of the structure shown.

Key:
Assay type in all cases: cell-based
[1] = system: S. marcescens 35; assay: Antimicrobial activity, minimal inhibitory concentration (agar streak) against S. marcescens 35; conditions: Serratia marcescens, 10^8 viable cells per ml, heart infusion agar, 37° C. for 20 hours
Procedure: (§1) Now in order to show the utility of the object compounds (I), test data on anti-microbial activity of a representative compound of the present invention are shown below.
(§2) One loopful of an overnight culture of each test strain in Trypticase-soy broth (10^8 viable cells per ml.) was streaked on heart infusion agar (HI-agar) containing graded concentrations of antibiotics, and the minimal inhibitory concentration (MIC) was expressed in terms of μg/ml after incubation at 37° C. for 20 hours.

[2] = system: Ps. aeruginosa 2; assay: Antimicrobial activity, minimal inhibitory concentration (agar streak) against Ps. aeruginosa 2; conditions: Pseudomonas aeruginosa, 10^8 viable cells per ml, heart infusion agar, 37° C. for 20 hours
Procedure: as §1, §2

[3] = system: B. subtilis ATCC 6633; assay: Antimicrobial activity, minimal inhibitory concentration (agar streak) against B. subtilis ATCC 6633; conditions: Bacillus subtilis, ATCC6633, 10^8 viable cells per ml, heart infusion agar, 37° C. for 20 hours
Procedure: as §1, §2

Compound: CCO/N=C(\C(=O)NC1C(=O)N2C(C(=O)[O-])=C(C[n+]3ccccc3)CSC12)c1nsc(N)n1 (stereo not drawn) [(1)]
- MIC [1]: 1.56 µg/mL (≈ 3.19 µM)
- MIC [2]: 3.13 µg/mL (≈ 6.39 µM)
- MIC [3]: 0.78 µg/mL (≈ 1.59 µM)

Compound: CCCO/N=C(\C(=O)NC1C(=O)N2C(C(=O)[O-])=C(C[n+]3ccccc3)CSC12)c1nsc(N)n1 (stereo not drawn) [(2)]
- MIC [1]: 3.13 µg/mL (≈ 6.22 µM)
- MIC [2]: 12.5 µg/mL (≈ 24.8 µM)
- MIC [3]: 0.39 µg/mL (≈ 0.774 µM)

Compound: CCO/N=C(\C(=O)NC1C(=O)N2C(C(=O)[O-])=C(C[n+]3ccc(C(N)=O)cc3)CSC12)c1nsc(N)n1 (stereo not drawn) [(3)]
- MIC [1]: 3.13 µg/mL (≈ 5.88 µM)
- MIC [2]: 25 µg/mL (≈ 46.9 µM)
- MIC [3]: 0.78 µg/mL (≈ 1.46 µM)
